Assay: Systemic (plasma) exposure of celecoxib after oral gavage
Assay type: in vivo, mouse
Conditions: oral gavage 29 mg/kg in lipid based formulation (Compound I-1 equivalent to 8.3 mg/kg celecoxib), fasted mice
Procedure: To evaluate the systemic exposure of celecoxib and celecoxib prodrug Compound I-1, 29 mg/kg celecoxib or celecoxib prodrug (equivalent to 8.3 mg/kg celecoxib) were administered in a self-emulsifying lipid-based formulation consisting of oleic acid (Sigma Aldrich, Australia)/Cremophor RH40 (Sigma Aldrich, Australia)/ethanol (40:52.6:7.4, w/w/w). Drug and prodrug concentrations in the formulations were confirmed using HPLC-MS/MS as described below.
In addition to evaluating lymph uptake of celecoxib and celecoxib prodrug, a pharmacokinetic dose-determining study was conducted to determine a dose of celecoxib and celecoxib prodrug that produce higher lymphatic uptake but lower systemic plasma celecoxib exposure (i.e. lower plasma concentrations over time) after administration of the prodrug. […]
For HPLC-MS/MS analysis of celecoxib in plasma after dosing celecoxib or celecoxib prodrug Compound I-1, 200 μL acetonitrile was added to 20 μL samples of plasma and 5 μL of a 1 μg/mL solution of internal standard (5,5-diethyl-1,3-diphenyl-2-iminobarbituric acid) in acetonitrile. Samples were vortexed for 30 seconds and centrifuged at 4,500 g for 5 min, and 80 μL supernatant was analyzed for celecoxib concentration by HPLC-MS. […]

plasma concentrations of celecoxib, compared to an equal mass of the parent drug: lower
SMILES: CCCCCCCCCCCCCCCC(=O)OCC(COC(=O)CCCCCCCCCCCCCCC)OC(=O)CCCCCCCCC(=O)Oc1cc(C)cc(C)c1C(C)(C)CC(=O)NS(=O)(=O)c1ccc(-n2nc(C(F)(F)F)cc2-c2ccc(C)cc2)cc1 [Compound I-1]

Reference: patent US12611415B2, “Methods and compounds for treatment of metabolic disease” (Monash University, priority 2019, dated 2026)
